According to the supplement of paper PMC11208160:

Experiment: recombinant barcode read abundance after kanamycin selection (control-corrected) (log10(CPM+1)); higher = more efficient recombination; sequences stand for … in AGTGCAGAGAAAATCGGCCAGTTTTCTCTGCCTGCAGTCCGCATGCCGT…AGATTTATGCAGCGGACTGCCTTTCTCCCAAAGTGATAAACCGGACAGTATCATGGACCGGTTTTCCCGGTAATCCGTATTTGCAAGGTTGGTTTCACT; site = the 11-nt target
Method in brief: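 Targets were screened in pooled form in E. coli against IS621 bridge RNA target-binding loops. Recombination efficiency is based on barcode counts at recombinant junctions in counts per million, averaged and corrected for the control. Numbers are shown as log10(CPM+1), with duplicate plates on chloramphenicol/ampicillin LB agar (control) or chloramphenicol/ampicillin/kanamycin with 0.1 mM IPTG.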
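Further: IS621 recombinase and bridge RNA in Escherichia coli cells.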

Question: With “GAACCTACTTGGGTTCTAACCTGTTGCGG (site GAACCTACTTC)” as the sequence, how does the “recombinant barcode read abundance (log10)” value read?
Answer: The value was 0.107.

Question: For “GAAGACGCTTGGGTTCTAACCTGTTGCCT (site GAAGACGCTAG)”, which “recombinant barcode read abundance (log10)” value is on record?
Answer: The value was 1.14.

Question: Which “recombinant barcode read abundance (log10)” value does the source give for “GAAGACGCTTGGGTTCTAACCTGTTGCCT (site GAAGCCGCTAG)” here?
Answer: The value was 0.315.

Question: For “GAAGACGCTTGGGTTCTAACCTGTTGCCT (site GAAGGCGCTAG)”, which “recombinant barcode read abundance (log10)” value is on record?
Answer: Its value is 0.

Question: With “GAAGACGCTTGGGTTCTAACCTGTTGCCT (site GAAGTCGCTAG)” as the sequence, how does the “recombinant barcode read abundance (log10)” value read?
Answer: Its value is 0.126.

Question: Which “recombinant barcode read abundance (log10)” value does the source give for “GAAGGCGCTTGGGTTCTAACCTGTTGCCT (site GAAGACGCTAG)” here?
Answer: The value was 0.187.

Question: Which “recombinant barcode read abundance (log10)” value does the source give for “GAAGGCGCTTGGGTTCTAACCTGTTGCCT (site GAAGCCGCTAG)” here?
Answer: The value was 0.306.

Question: Which “recombinant barcode read abundance (log10)” value does the source give for “GAAGGCGCTTGGGTTCTAACCTGTTGCCT (site GAAGGCGCTAG)” here?
Answer: Its value is 1.81.

Question: With “GAAGGCGCTTGGGTTCTAACCTGTTGCCT (site GAAGTCGCTAG)” as the sequence, how does the “recombinant barcode read abundance (log10)” value read?
Answer: Its value is 0.0553.

Question: Which “recombinant barcode read abundance (log10)” value does the source give for “GAAGTCCCTTGGGTTCTAACCTGTTGCCT (site AAAGTCCCTAG)” here?
Answer: Its value is 0.558.

Question: Which “recombinant barcode read abundance (log10)” value does the source give for “GAAGTCCCTTGGGTTCTAACCTGTTGCCT (site CAAGTCCCTAG)” here?
Answer: Its value is 0.848.

Question: With “GAAGTCCCTTGGGTTCTAACCTGTTGCCT (site GAAGTCCCTAG)” as the sequence, how does the “recombinant barcode read abundance (log10)” value read?
Answer: The value was 1.82.

Question: For “GAAGTCCCTTGGGTTCTAACCTGTTGCCT (site TAAGTCCCTAG)”, which “recombinant barcode read abundance (log10)” value is on record?
Answer: The value was 1.22.

Question: Which “recombinant barcode read abundance (log10)” value does the source give for “GAAGTGCCTTGGGTTCTAACCTGTTGCCT (site GAAGAGCCTAG)” here?
Answer: Its value is 0.272.

Question: For “GAAGTGCCTTGGGTTCTAACCTGTTGCCT (site GAAGCGCCTAG)”, which “recombinant barcode read abundance (log10)” value is on record?
Answer: The value was 0.0713.

Question: Which “recombinant barcode read abundance (log10)” value does the source give for “GAAGTGCCTTGGGTTCTAACCTGTTGCCT (site GAAGGGCCTAG)” here?
Answer: The value was 0.195.

Question: With “GAAGTGCCTTGGGTTCTAACCTGTTGCCT (site GAAGTGCCTAG)” as the sequence, how does the “recombinant barcode read abundance (log10)” value read?
Answer: The value was 1.92.

Question: With “GAATCCTCTTGGGTTCTAACCTGTTGCCT (site AAATCCTCTAG)” as the sequence, how does the “recombinant barcode read abundance (log10)” value read?
Answer: The value was 0.145.

Question: With “GAATCCTCTTGGGTTCTAACCTGTTGCCT (site CAATCCTCTAG)” as the sequence, how does the “recombinant barcode read abundance (log10)” value read?
Answer: Its value is 0.531.

Question: With “GAATCCTCTTGGGTTCTAACCTGTTGCCT (site GAATCCTCTAG)” as the sequence, how does the “recombinant barcode read abundance (log10)” value read?
Answer: Its value is 2.06.

Question: Which “recombinant barcode read abundance (log10)” value does the source give for “GAATCCTCTTGGGTTCTAACCTGTTGCCT (site TAATCCTCTAG)” here?
Answer: The value was 0.483.

Question: With “GAATGAGCTTGGGTTCTAACCTGTTGCCT (site CTCACGACTCT)” as the sequence, how does the “recombinant barcode read abundance (log10)” value read?
Answer: Its value is 0.014.

Question: With “GAATGAGCTTGGGTTCTAACCTGTTGCCT (site GAATGAGCTAG)” as the sequence, how does the “recombinant barcode read abundance (log10)” value read?
Answer: Its value is 1.43.

Question: With “GACAAGTCTTGGGTTCTAACCTGTTGCCT (site GAAACGTCTAG)” as the sequence, how does the “recombinant barcode read abundance (log10)” value read?
Answer: Its value is 0.173.

Question: With “GACAAGTCTTGGGTTCTAACCTGTTGCCT (site GACAAGTCTAG)” as the sequence, how does the “recombinant barcode read abundance (log10)” value read?
Answer: Its value is 1.14.

Question: With “GACACAACTTGGGTTCTAACCTGTTGCCT (site GACACAACTAG)” as the sequence, how does the “recombinant barcode read abundance (log10)” value read?
Answer: The value was 0.

Question: Which “recombinant barcode read abundance (log10)” value does the source give for “GACACAACTTGGGTTCTAACCTGTTGCCT (site GACCCATCTAG)” here?
Answer: Its value is 0.338.

Question: With “GACACGCCTTGGGTTCTAACCTGTTGCAT (site GACACGCCTAA)” as the sequence, how does the “recombinant barcode read abundance (log10)” value read?
Answer: Its value is 0.0135.

Question: With “GACACGCCTTGGGTTCTAACCTGTTGCAT (site GACACGCCTAC)” as the sequence, how does the “recombinant barcode read abundance (log10)” value read?
Answer: The value was 0.326.

Question: Which “recombinant barcode read abundance (log10)” value does the source give for “GACACGCCTTGGGTTCTAACCTGTTGCAT (site GACACGCCTAG)” here?
Answer: The value was 0.976.

Question: Which “recombinant barcode read abundance (log10)” value does the source give for “GACACGCCTTGGGTTCTAACCTGTTGCAT (site GACACGCCTAT)” here?
Answer: The value was 0.189.

Question: For “GACAGGCCTTGGGTTCTAACCTGTTGCCT (site CACGGGCCTAG)”, which “recombinant barcode read abundance (log10)” value is on record?
Answer: The value was 0.041.

Question: For “GACAGGCCTTGGGTTCTAACCTGTTGCCT (site GACAGGCCTAG)”, which “recombinant barcode read abundance (log10)” value is on record?
Answer: The value was 0.627.

Question: Which “recombinant barcode read abundance (log10)” value does the source give for “GACATTCCTTGGGTTCTAACCTGTTGCCT (site AACATTCCTAG)” here?
Answer: Its value is 0.375.

Question: With “GACATTCCTTGGGTTCTAACCTGTTGCCT (site CACATTCCTAG)” as the sequence, how does the “recombinant barcode read abundance (log10)” value read?
Answer: Its value is 0.113.

Question: For “GACATTCCTTGGGTTCTAACCTGTTGCCT (site GACATTCCTAG)”, which “recombinant barcode read abundance (log10)” value is on record?
Answer: Its value is 0.131.

Question: For “GACATTCCTTGGGTTCTAACCTGTTGCCT (site TACATTCCTAG)”, which “recombinant barcode read abundance (log10)” value is on record?
Answer: The value was 0.0381.

Question: With “GACCACCCTTGGGTTCTAACCTGTTGCGG (site ATCCACCCTCC)” as the sequence, how does the “recombinant barcode read abundance (log10)” value read?
Answer: The value was 1.14.

Question: Which “recombinant barcode read abundance (log10)” value does the source give for “GACCACCCTTGGGTTCTAACCTGTTGCGG (site GACCACCCTCC)” here?
Answer: The value was 2.85.

Question: With “GACCCTACTTGGGTTCTAACCTGTTGCCT (site AACCCTACTAG)” as the sequence, how does the “recombinant barcode read abundance (log10)” value read?
Answer: The value was 0.111.

Question: With “GACCCTACTTGGGTTCTAACCTGTTGCCT (site CACCCTACTAG)” as the sequence, how does the “recombinant barcode read abundance (log10)” value read?
Answer: Its value is 0.375.

Question: With “GACCCTACTTGGGTTCTAACCTGTTGCCT (site GACCCTACTAG)” as the sequence, how does the “recombinant barcode read abundance (log10)” value read?
Answer: Its value is 0.516.

Question: For “GACCCTACTTGGGTTCTAACCTGTTGCCT (site TACCCTACTAG)”, which “recombinant barcode read abundance (log10)” value is on record?
Answer: The value was 0.119.
